Results: patent US20240226241A1, “FORMULATIONS FOR INTRAOCULAR DELIVERY OF PEPTIDES DERIVED FROM TYPE IV COLLAGEN” (AsclepiX Therapeutics, Inc., priority 2022, published 2024)
No end group written: not given here.

Experiments:
[1] = rabbit, in vivo
Experimental: (§1) This example evaluates the pharmacokinetics (PK)/tolerability of the AXT107 suspension (5% sucrose, 0.9% NaCl) at 4 different dose levels administered by suprachoroidal (Sch) injection in female Dutch Belted rabbits. In Phase 1 of these experiments, animals received a 100 μL SCh injection in both eyes on Day 0. In these experiments, Group 1 received 469 μg of AXT107 peptide, Group 2 received 246 μg of AXT107 peptide, and Group 3 received vehicle (i.e., 5% sucrose in saline).
(§2) Blood was collected from Group 3 pre-dose, and in terminal animals on Day 90, and was processed for plasma. All eyes in Groups 1 and 2 and two Group 3 eyes were collected and dissected. Blood and ocular tissues underwent PK analysis.
(§3) In the next studies, animals received a 100 μL SCh injection (of AXT107 suspension, 5% sucrose and 0.9% NaCl) in both eyes on Day 0. Group 1 animals received 340 μg of AXT107 peptide, Group 2 animals received 219 μg AXT107 peptide, Group 3 animals received 142 μg of AXT107 peptide, and Group 4 animals received 115 μg AXT107 peptide.
(§4) On Days 1, 15, 30, 60, and 90, n=2 animals/group were euthanized and plasma and ocular tissues were collected for PK.
(§5) Plasma and ocular tissues collected during the study were analyzed for AXT107 peptide PK parameters by non-GLP liquid chromatography with tandem-mass spectrometry (LC/MS/MS).

[2] = Pharmacokinetics after suprachoroidal injection, LC/MS/MS of plasma and ocular tissues; conditions: SCh injection
Experimental: as §1, §2, §3, §4, §5

[3] = Tolerability after suprachoroidal injection (ocular examination, tonometry, OCT, H&E histopathology); conditions: for tolerability: 100 μL SCh injection in both eyes on Day 0, to Day 90
Experimental: This example evaluates the pharmacokinetics (PK)/tolerability of the AXT107 suspension (5% sucrose, 0.9% NaCl) at 4 different dose levels administered by suprachoroidal (Sch) injection in female Dutch Belted rabbits. In Phase 1 of these experiments, animals received a 100 μL SCh injection in both eyes on Day 0.
Ocular examinations were performed at baseline, and on Days 1, 3, 7, 15, 30, 60, and 90. […] Tonometry was performed at baseline, and on Days 1, 3, 7, 15, 30, 60, and 90. […] Optical coherence tomography (OCT) was performed at baseline, post-dose to confirm SCh dosing, and on Day 15.
All eyes in Groups 1 and 2 and two Group 3 eyes were collected and dissected. […] From Group 3, two eyes were collected and processed for hematoxylin & eosin (H&E) histopathology.
In the next studies, animals received a 100 μL SCh injection (of AXT107 suspension, 5% sucrose and 0.9% NaCl) in both eyes on Day 0. […] Ocular examinations were performed at baseline and on Days 1, 9, 30, 60, and 90.
Tonometry was performed at baseline and on Days 1, 9, 30, 60, and 90.
OCT was performed at baseline, post-dose to confirm SCh dosing, and in terminal animals on Days 15 and 30.
On Day 90, an additional Group 1 animal was euthanized and OU were processed for H&E histopathology.

LRRFSTAPFAFIDINDVINF [AXT107 peptide]
drug levels in choroid/RPE [1]: present | drug levels in retina [2]: present | drug levels in aqueous humor ([2]; all timepoints): absent | drug levels in plasma ([2]; all timepoints): absent | H&E histopathology of eyes ([3]; Group 1 (340 μg), Day 90, both eyes, considered incidental (needle damage), unrelated to AXT107): mild mononuclear cell infiltrate in the limbal conjunctiva | tolerability ([3]; Phase 1: 469 μg and 246 μg): well tolerated | tolerability ([3]; all doses): well tolerated
